Experimental data published in patent publication US6350812B1, “Hydrogels containing triblock copolymers, and preparation and use thereof” (Centre National de la Recherche Scientifique (CNRS), priority 1995, dated 2002).

What was measured:
[1] = as described for the commercial colorant; cited from earlier work
[2] = Incorporation and retention of a hydrophobic substance in the hydrogel on addition of water and washing with water; assay type: physicochemical; settings: acetone solution, water added
Procedure: 1 g of copolymer of Example 1.3 and 5 mg of commercial colorant Yellow OB are dissolved in 2 cm^3 of acetone.
This is a very hydrophobic, water-insoluble colorant. Distilled water (4 cm^3) is gradually added. A gel is obtained which occupies virtually all the volume of the starting acetone solution.
Hydrogels in which progesterone is incorporated were prepared in an analogous way. […] When administered by subcutaneous injection, the gel constitutes a bioresorbable soft implant which gradually releases the progesterone.

Cc1ccccc1N=Nc1c(N)ccc2ccccc12 [Yellow OB]
solubility of the colorant in water [1]: water-insoluble
crystallisation / precipitation of the hydrophobic substance on addition of water or washing [2]: the colorant crystallizes during the addition of water
